Two compounds from patent publication US12338446B2, “Plants having increased tolerance to herbicides” (priority 2015, dated 2025) can be followed below.

Structures are written as SMILES. Read-outs that look alike come from different tables or passages of the source.

Assay [1] relates to Nicotiana benthamiana leaf discs. The assay can be described thus: PSII yield inhibition (chlorophyll fluorescence, imaging PAM) in transiently transformed tobacco leaf discs. It is filed as cell-based. The conditions noted are these: read-out: IC50 of PSII yield inhibition. The text has this:
Transient expression of PPO sequences (e.g. SEQ ID NO: 184) as wildtype or with respective mutations were done as described previously (Voinnet O., et al., 2003, The Plant Journal 33, 949-956). In brief, cloning of GOI and Agrobacterium transformation (strain: GV2260) were done as described in EXAMPLE 5. Young leaves of
Nicotiana benthamiana were infiltrated with transgenic Agrobacterium suspension (OD^600 of 1.0) harboring binary vector constructs containing a GO/gene controlled by a promoter and terminator sequence. 48 h to 72 h after infiltration punches of leave discs (0.75 cm in diameter) were transferred to 6-well plates with medium (half strength Linsmaier-Skoog (Linsmaier and Skoog (1965) Physiol. Plant. 18: 100-127) nutrient solution or water) containing herbicide of interest in different concentrations. […]
Leaf discs, generated as described in EXAMPLE 14, expressing a protein encoded by GOI, were subjected to analysis on improved tolerance to herbicide treatment. For analysis of herbicide damage, chlorophyll fluorescence were identified as indicative marker (Dayan and Zaccaro (2012) Pest. Biochem. Physiol. 102: 189-197). […] PSII yield were measured as per manufacturer instructions. Tolerance factors were calculated based on IC50 values of PSII yield inhibition of transformed versus empty vector-transformed leaf discs. […]

Assay [2] deals with Transgenic Arabidopsis thaliana plants with wildtype or mutated PPO sequences. The assay can be described thus: Tolerance of transgenic Arabidopsis thaliana plants to PPO-inhibiting herbicides in 48-well plates (growth inhibition). In kind it is in vivo. As to conditions: seven to ten days after seeding. On the procedure: Transformed cells are selected in selection media supplemented with 0.5-1.5 μM imazethapyr for 3-4 weeks. Transgenic plantlets are regenerated on plant regeneration media and rooted afterwards. Transgenic plantlets are subjected to TaqMan analysis for the presence of the transgene before being transplanted to potting mixture and grown to maturity in greenhouse. Arabidopsis thaliana are transformed with wildtype or mutated PPO sequences by floral dip method as described by McElver and Singh (WO 2008/124495). Transgenic Arabidopsis plants are subjected to TaqMan analysis for analysis of the number of integration loci. Transformation of Otyza sativa (rice) are done by protoplast transformation as described by Peng et al. (U.S. Pat. No. 6,653,529) TO or T1 transgenic plant of soybean, corn, and rice containing mutated PPO sequences are tested for improved tolerance to PPO-derived herbicides in greenhouse studies and mini-plot studies with the following PPO-inhibiting herbicides: saflufenacil, 1,5-dimethyl-6-thioxo-3-(2,2,7-trifluoro-3-oxo-4-(prop-2-ynyl)-3,4-dihydro-2H-benzo[b][1,4]oxazin-6-yl)-1,3,5-triazinane-2,4-dione (CAS 1258836-72-4), flumioxazin, butafenacil, acifluorfen, lactofen, bifenox, sulfentrazone, and photosynthesis inhibitor diuron as negative control.
Transgenic Arabidopsis thaliana plants are assayed for improved tolerance to saflufenacil, 1,5-dimethyl-6-thioxo-3-(2,2,7-trifluoro-3-oxo-4-(prop-2-ynyl)-3,4-dihydro-2H-benzo[b][1,4]oxazin-6-yl)-1,3,5-triazinane-2,4-dione (CAS 1258836-72-4), flumioxazin, butafenacil, acifluorfen, lactofen, bifenox, sulfentrazone, and photosynthesis inhibitor diuron as negative control in 48-well plates. Therefore, T2 seeds are surface sterilized by stirring for 5 min in ethanol+water (70+30 by volume), rinsing one time with ethanol+water (70+30 by volume) and two times with sterile, deionized water. The seeds are resuspended in 0.1% agar dissolved in water (w/v) Four to five seeds per well are plated on solid nutrient medium consisting of half-strength murashige skoog nutrient solution, pH 5.8 (Murashige and Skoog (1962) Physiologia Plantarum 15: 473-497). Compounds are dissolved in dimethylsulfoxid (DMSO) and added to the medium prior solidification (final DMSO concentration 0.1%). Multi well plates are incubated in a growth chamber at 22° C., 75% relative humidity and 110 μmol Phot*m^−2*s^−1 with 14:10 h light: dark photoperiod. Growth inhibition is evaluated seven to ten days after seeding in comparison to wild type plants.

Setting [3] is: gene CHLSP_PPO_wt_tpFNR, Chloroflexus sp. (SEQ ID NO: 21).
Setting [4] is: gene OPITE_PPO_wt_tpFNR, Opitutus marinus (SEQ ID NO: 9).
The mark [5] stands for this setting: gene RHOMA_PPO_F353V_tpFNR, Rhodotermus marinus (SEQ ID NO: 3 oder 5).
[6] abbreviates: gene RHOMA_PPO_wt_tpFNR, Rhodotermus marinus (SEQ ID NO: 3 oder 5).
Setting [7] is: gene hemG_tpFNR, Escherichia coli (SEQ ID NO: 184).

On to `CC(C)N(C)S(=O)(=O)NC(=O)c1cc(-n2c(=O)cc(C(F)(F)F)n(C)c2=O)c(F)cc1Cl` [Saflufenacil, saflufenacil], for which, in assay [1] (48 h), the IC50 (in general, the concentration that gives 50% inhibition) is 110 nM. In addition, the “improved tolerance (growth inhibition in comparison to wild type plants)” value in assay [2] (gene AC IB A_hemJ_wt_tpFNR, Acinetobacter baylyi (SEQ ID NO: 312)) was 1; in assay [2] (gene CALNI_PPO_wt_tpFNR, Calditerrivibrio nitroreducens (SEQ ID NO: 48)), 1; in assay [2] (gene CANME_PPO_wt_tpFNR, Candidatus methylomirabilis (SEQ ID NO: 54 or 57)), 1; in assay [2] (setting [3]) it was 640; in assay [2] (gene HYDTH_PPO_wt_tpFNR, Hydrogenobacter thermophilus (SEQ ID NO: 27)) it was 10; in assay [2] (gene LARHO_PPO_wt_tpFNR, Laribacter hongkongensis (SEQ ID NO: 34)), 1. Moreover, the “improved tolerance (growth inhibition in comparison to wild type plants)” value in assay [2] (setting [4]) is 14; in assay [2] (setting [5]) it was 1; in assay [2] (setting [6]), 1; in assay [2] (setting [7]) it was 332.
Regarding `C#CCN1C(=O)C(F)(F)Oc2cc(F)c(-n3c(=O)n(C)c(=S)n(C)c3=O)cc21` [BAS 850H, 1,5-dimethyl-6-thioxo-3-(2,2,7-trifluoro-3-oxo-4-(prop-2-ynyl)-3,4-dihydro-2H-benzo[b][1,4]oxazin-6-yl)-1,3,5-triazinane-2,4-dione], the IC50 in assay [1] (empty vector-transformed leaf discs, treated for 48 h) was determined as 11 nM. The “improved tolerance (growth inhibition in comparison to wild type plants)” value in assay [2] (setting [3]) amounted to 1500; in assay [2] (setting [4]), 9; in assay [2] (setting [5]), 1; in assay [2] (setting [6]), 1; in assay [2] (setting [7]), 4433.
